Source: patent US20240382483A1, “HETEROCYCLIC EGFR INHIBITORS FOR USE IN THE TREATMENT OF CANCER” (Blueprint Medicines Corporation, priority 2021, published 2024)

Assays:
EGFR (L858R T790M C797S) = target: T1, EGFR (L858R T790M C797S) (Homo sapiens, UniProt P00533, C797S/L858R/T790M); test: Biochemical EGFR inhibition assay (Caliper mobility shift), EGFR LRTMCS; settings: LRTMCS (PH) IC50 (nM) @ 1 mM ATP (Num), EGFR LRTMCS mutant
T1 construct: purchased SignalChem E10-122VG
Method in brief: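 Kinase reactions at 25 °C run to 10–20% peptide phosphorylation, stopped with 35 mM EDTA. Phosphorylated product and substrate separated electrophoretically by mobility shift. Apparent IC50 from percent activity versus log compound concentration.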

[1] = target: T2, intracellular phosphorylation of EGFR in NCI-H1975 cell line that harbors the EGFR L858R T790M mutations (Homo sapiens, UniProt P00533, L858R/T790M); test: NCI-H1975 pEGFR AlphaLISA assay; format: cell-based; settings: NCI-H1975 cells (EGFR L858R T790M), p-EGFR (Tyr1068), 4-5 hours incubation; read-out: Ext pEGFR H1975 GMean IC50 (nM) Protocol: @Pharmaron AlphaLISA (Num)
T2 construct: NCI-H1975 cell line that harbors the EGFR L858R T790M mutations (ATCC, CRL-5908); host or cells: NCI-H1975
Description: On the next day, the test compounds and DMSO control were added into H1975 cell plate followed by incubation at 37C/5% CO2 for 4-5 hours. […] Then 5 μL of a donor bead mix was added to each well followed by overnight incubation at room temperature in dark. On the next day, the plate was read at a compatible plate reader to obtain pEGFR signal. Percent of pEGFR inhibition was plotted against log concentration of compounds to generate IC50 values.

T1 sequence (P00533 25-1210 T790M/C797S/L858R): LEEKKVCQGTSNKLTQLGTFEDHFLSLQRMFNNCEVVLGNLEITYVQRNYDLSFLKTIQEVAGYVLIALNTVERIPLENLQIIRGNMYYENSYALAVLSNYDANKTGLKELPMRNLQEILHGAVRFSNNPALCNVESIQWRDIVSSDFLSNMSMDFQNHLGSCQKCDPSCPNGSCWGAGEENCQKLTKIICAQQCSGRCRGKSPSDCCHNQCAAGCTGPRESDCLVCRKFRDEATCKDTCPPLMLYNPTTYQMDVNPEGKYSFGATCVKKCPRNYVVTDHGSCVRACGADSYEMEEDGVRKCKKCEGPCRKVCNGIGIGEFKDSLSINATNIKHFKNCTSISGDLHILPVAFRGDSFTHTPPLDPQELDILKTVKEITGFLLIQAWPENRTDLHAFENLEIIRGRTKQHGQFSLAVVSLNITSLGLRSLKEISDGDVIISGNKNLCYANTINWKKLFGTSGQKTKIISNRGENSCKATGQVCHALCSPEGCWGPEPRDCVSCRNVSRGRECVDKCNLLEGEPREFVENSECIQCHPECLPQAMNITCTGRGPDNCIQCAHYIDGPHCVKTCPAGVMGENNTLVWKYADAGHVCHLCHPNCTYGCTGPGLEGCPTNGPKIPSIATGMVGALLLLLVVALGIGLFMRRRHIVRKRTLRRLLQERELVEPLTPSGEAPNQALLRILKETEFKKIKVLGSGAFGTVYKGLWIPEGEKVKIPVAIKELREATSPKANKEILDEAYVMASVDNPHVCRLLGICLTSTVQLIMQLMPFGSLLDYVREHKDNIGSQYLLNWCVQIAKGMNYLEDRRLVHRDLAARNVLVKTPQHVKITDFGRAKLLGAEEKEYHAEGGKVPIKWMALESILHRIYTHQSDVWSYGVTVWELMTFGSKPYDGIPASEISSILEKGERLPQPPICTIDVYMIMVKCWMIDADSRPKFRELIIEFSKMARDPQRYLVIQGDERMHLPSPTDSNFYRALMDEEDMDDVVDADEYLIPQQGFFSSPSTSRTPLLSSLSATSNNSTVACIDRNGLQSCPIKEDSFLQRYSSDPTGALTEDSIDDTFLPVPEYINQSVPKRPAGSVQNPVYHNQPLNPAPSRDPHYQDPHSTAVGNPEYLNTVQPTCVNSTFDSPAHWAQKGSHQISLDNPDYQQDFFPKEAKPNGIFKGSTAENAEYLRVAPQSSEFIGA
T2 sequence (P00533 25-1210 T790M/L858R): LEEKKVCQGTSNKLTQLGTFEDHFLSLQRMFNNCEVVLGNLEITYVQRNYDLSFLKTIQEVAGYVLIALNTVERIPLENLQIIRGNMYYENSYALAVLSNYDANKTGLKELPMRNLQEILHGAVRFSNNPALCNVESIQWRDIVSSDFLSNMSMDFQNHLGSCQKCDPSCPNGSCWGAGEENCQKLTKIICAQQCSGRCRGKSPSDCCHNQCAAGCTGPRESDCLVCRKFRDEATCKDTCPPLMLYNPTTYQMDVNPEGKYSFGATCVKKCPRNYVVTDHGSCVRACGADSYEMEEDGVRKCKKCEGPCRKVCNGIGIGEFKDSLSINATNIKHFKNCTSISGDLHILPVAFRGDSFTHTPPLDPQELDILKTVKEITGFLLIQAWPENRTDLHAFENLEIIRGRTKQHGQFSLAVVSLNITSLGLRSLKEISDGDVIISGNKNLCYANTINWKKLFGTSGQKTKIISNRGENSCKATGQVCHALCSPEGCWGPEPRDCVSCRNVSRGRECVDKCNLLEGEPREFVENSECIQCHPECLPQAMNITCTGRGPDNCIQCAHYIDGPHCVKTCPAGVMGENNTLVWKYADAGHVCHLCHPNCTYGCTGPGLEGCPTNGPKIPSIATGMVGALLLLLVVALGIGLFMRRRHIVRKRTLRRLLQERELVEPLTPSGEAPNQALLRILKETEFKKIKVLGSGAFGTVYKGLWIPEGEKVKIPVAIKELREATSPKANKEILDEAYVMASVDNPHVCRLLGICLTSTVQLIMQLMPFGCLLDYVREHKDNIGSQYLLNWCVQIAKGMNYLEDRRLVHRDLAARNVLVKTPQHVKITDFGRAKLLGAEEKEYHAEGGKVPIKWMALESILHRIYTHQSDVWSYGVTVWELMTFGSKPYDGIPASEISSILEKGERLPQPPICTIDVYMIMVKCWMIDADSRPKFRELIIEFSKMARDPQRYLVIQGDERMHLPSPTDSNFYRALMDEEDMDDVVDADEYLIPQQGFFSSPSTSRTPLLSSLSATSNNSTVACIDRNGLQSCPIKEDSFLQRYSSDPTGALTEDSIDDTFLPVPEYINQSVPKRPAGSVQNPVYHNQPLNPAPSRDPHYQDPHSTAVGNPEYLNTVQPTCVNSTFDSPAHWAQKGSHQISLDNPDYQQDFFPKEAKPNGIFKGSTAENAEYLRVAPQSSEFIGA

Structure (SMILES)	IC50 (EGFR (L858R T790M C797S)) [nM]	IC50 [1] [nM]
C[C@H](CO)c1ccc(N2CC[C@H]2C)c2cnc(Nc3ccnc(N4CC[C@@H](O)[C@@](C)(F)C4)n3)cc12 (single isomer, unassigned) [Example 158, (3S,4R)-3-fluoro-1-(4-((5-((S)-1-hydroxypropan-2-yl)-8-((R)-2-methylazetidin-1-yl)isoquinolin-3-yl)amino)pyrimidin-2-yl)-3-methylpiperidin-4-ol or (3S,4R)-3-fluoro-1-(4-((5-((R)-1-hydroxypropan-2-yl)-8-((R)-2-methylazetidin-1-yl)isoquinolin-3-yl)amino)pyrimidin-2-yl)-3-methylpiperidin-4-ol]	15 to 20	30 to 50
CC(C)c1cnc(N2CCC23CCN(C)CC3)c2cnc(Nc3ccnc(N4CC[C@@H](O)[C@@](C)(F)C4)n3)cc12 [Example 196, (3S,4R)-3-fluoro-1-(4-((5-isopropyl-8-(7-methyl-1,7-diazaspiro[3.5]nonan-1-yl)-2,7-naphthyridin-3-yl)amino)pyrimidin-2-yl)-3-methylpiperidin-4-ol]	< 15	10 to 20
CC(C)c1cnc(N2CC[C@]3(C2)CC3(F)F)c2cnc(Nc3ccnc(N4CC[C@@H](O)[C@@](C)(F)C4)n3)cc12 (single isomer, unassigned) [Example 213, (3S,4R)-1-(4-((8-((R)-1,1-difluoro-5-azaspiro[2.4]heptan-5-yl)-5-isopropyl-2,7-naphthyridin-3-yl)amino)pyrimidin-2-yl)-3-fluoro-3-methylpiperidin-4-ol or (3S,4R)-1-(4-((8-((S)-1,1-difluoro-5-azaspiro[2.4]heptan-5-yl)-5-isopropyl-2,7-naphthyridin-3-yl)amino)pyrimidin-2-yl)-3-fluoro-3-methylpiperidin-4-ol]	< 15	10 to 20
Cc1nc(-c2ccc(C(C)C)c3cc(Nc4ccnc(N5CC[C@@H](O)[C@@](C)(F)C5)n4)ncc23)n[nH]1 [Example 26, (3S,4R)-3-fluoro-1-(4-((5-isopropyl-8-(5-methyl-1H-1,2,4-triazol-3-yl)isoquinolin-3-yl)amino)pyrimidin-2-yl)-3-methylpiperidin-4-ol]	< 15	30 to 50
CC(C)c1cnc(N2CC3(CN(C)C(=O)O3)C2)c2cnc(Nc3ccnc(N4CC[C@@H](O)[C@@](C)(F)C4)n3)cc12 [Example 71, 2-(6-((2-((3S,4R)-3-fluoro-4-hydroxy-3-methylpiperidin-1-yl)pyrimidin-4-yl)amino)-4-isopropyl-2,7-naphthyridin-1-yl)-7-methyl-5-oxa-2,7-diazaspiro[3.4]octan-6-one]	20 to 30	30 to 50
CC(C)c1ccc(N2CC(c3nnco3)C2)c2cnc(Nc3ccnc(N4CC[C@@H](O)[C@@](C)(F)C4)n3)cc12 [Example 111, (3S,4R)-1-(4-((8-(3-(1,3,4-oxadiazol-2-yl)azetidin-1-yl)-5-isopropylisoquinolin-3-yl)amino)pyrimidin-2-yl)-3-fluoro-3-methylpiperidin-4-ol]	< 15	< 10
Cc1nnc(-c2ncc(C(C)C)c3cc(Nc4ccnc(N5CC[C@@H](O)[C@@](C)(F)C5)n4)ncc23)o1 [Example 5, (3S,4R)-3-fluoro-1-(4-((5-isopropyl-8-(5-methyl-1,3,4-oxadiazol-2-yl)-2,7-naphthyridin-3-yl)amino)pyrimidin-2-yl)-3-methylpiperidin-4-ol]	< 15	10 to 20
CO[C@H]1CCN(c2nccc(Nc3cc4c(C(C)C)cnc(N5CCC56CN(C)C6)c4cn3)n2)C[C@@]1(C)F (single isomer, unassigned) [Example 43, N-(2-((3R,4S)-3-fluoro-4-methoxy-3-methylpiperidin-1-yl)pyrimidin-4-yl)-5-isopropyl-8-(6-methyl-1,6-diazaspiro[3.3]heptan-1-yl)-2,7-naphthyridin-3-amine or N-(2-((3S,4R)-3-fluoro-4-methoxy-3-methylpiperidin-1-yl)pyrimidin-4-yl)-5-isopropyl-8-(6-methyl-1,6-diazaspiro[3.3]heptan-1-yl)-2,7-naphthyridin-3-amine]	15 to 20	> 50
CC(C)c1cnc(N2CC(C)(C(=O)N(C)C)C2)c2cnc(Nc3ccnc(N4CC[C@@H](O)[C@@](C)(F)C4)n3)cc12 [Example 93, 1-(6-((2-((3S,4R)-3-fluoro-4-hydroxy-3-methylpiperidin-1-yl)pyrimidin-4-yl)amino)-4-isopropyl-2,7-naphthyridin-1-yl)-N,N,3-trimethylazetidine-3-carboxamide]	< 15	10 to 20
CC(C)c1cnc(N2CC(N3CCCC3=O)C2)c2cnc(Nc3ccnc(N4CC[C@@H](O)[C@@](C)(F)C4)n3)cc12 [Example 91, 1-(1-(6-((2-((3S,4R)-3-fluoro-4-hydroxy-3-methylpiperidin-1-yl)pyrimidin-4-yl)amino)-4-isopropyl-2,7-naphthyridin-1-yl)azetidin-3-yl)pyrrolidin-2-one]	15 to 20	> 50
[2H]C([2H])([2H])O[C@H]1CCN(c2nccc(Nc3cc4c(C(C)C)cnc(N5C[C@H](O)[C@H]5C)c4cn3)n2)C[C@H]1F [Example 138, (2R,3S)-1-(6-((2-((3R,4S)-3-fluoro-4-(methoxy-d3)piperidin-1-yl)pyrimidin-4-yl)amino)-4-isopropyl-2,7-naphthyridin-1-yl)-2-methylazetidin-3-ol]	< 15	10 to 20
CNCCO[C@@H]1CCN(c2nccc(Nc3cc4c(C(C)C)cnc(N5CC[C@H]5C)c4cn3)n2)C[C@@H]1F [Example 201, N-(2-((3S,4R)-3-fluoro-4-(2-(methylamino)ethoxy)piperidin-1-yl)pyrimidin-4-yl)-5-isopropyl-8-((R)-2-methylazetidin-1-yl)-2,7-naphthyridin-3-amine]	< 15	10 to 20
CC(C)c1nnc(N2CC[C@@H]2C)c2cnc(Nc3ccnc(N4CC[C@@H](O)[C@@](C)(F)C4)n3)cc12 (single isomer, unassigned) [Example 206, (3S,4R)-3-fluoro-1-(4-((1-isopropyl-4-((S)-2-methylazetidin-1-yl)pyrido[3,4-d]pyridazin-7-yl)amino)pyrimidin-2-yl)-3-methylpiperidin-4-ol or (3S,4R)-3-fluoro-1-(4-((1-isopropyl-4-((S)-2-methylazetidin-1-yl)pyrido[3,4-d]pyridazin-7-yl)amino)pyrimidin-2-yl)-3-methylpiperidin-4-ol]	< 15	20 to 30
CC(C)c1ccc(N2CC(Cn3ccnn3)C2)c2cnc(Nc3ccnc(N4CC[C@](C)(O)[C@H](F)C4)n3)cc12 [Example 40, (3R,4S)-1-(4-((8-(3-((1H-1,2,3-triazol-1-yl)methyl)azetidin-1-yl)-5-isopropylisoquinolin-3-yl)amino)pyrimidin-2-yl)-3-fluoro-4-methylpiperidin-4-ol]	< 15	20 to 30
CO[C@@H]1CCN(c2nccc(Nc3cc4c(C(C)C)cnc(N5CC(C(=O)N(C)C)C5)c4cn3)n2)C[C@@H]1O (single isomer, unassigned) [Example 120, 1-(6-((2-((3S,4R)-3-hydroxy-4-methoxypiperidin-1-yl)pyrimidin-4-yl)amino)-4-isopropyl-2,7-naphthyridin-1-yl)-N,N-dimethylazetidine-3-carboxamide or 1-(6-((2-((3R,4S)-3-hydroxy-4-methoxypiperidin-1-yl)pyrimidin-4-yl)amino)-4-isopropyl-2,7-naphthyridin-1-yl)-N,N-dimethylazetidine-3-carboxamide]	20 to 30	30 to 50
CC(C)c1cnc(N2CC[C@H]2C)c2cnc(Nc3ccnc(N4CCC(O)(CO)CC4)n3)cc12 [Example 131, (R)-4-(hydroxymethyl)-1-(4-((5-isopropyl-8-(2-methylazetidin-1-yl)-2,7-naphthyridin-3-yl)amino)pyrimidin-2-yl)piperidin-4-ol]	15 to 20	> 50
CNC[C@@H]1CCCN1c1ncc(C(C)C)c2cc(Nc3ccnc(N4CC[C@@H](O)[C@@](C)(F)C4)n3)ncc12 [Example 197, (3S,4R)-3-fluoro-1-(4-((5-isopropyl-8-((S)-2-((methylamino)methyl)pyrrolidin-1-yl)-2,7-naphthyridin-3-yl)amino)pyrimidin-2-yl)-3-methylpiperidin-4-ol]	< 15	30 to 50
CO[C@@H]1CCN(c2nccc(Nc3cc4c(C(C)C)cnc(N5C[C@H](O)[C@H]5C)c4cn3)n2)C[C@@H]1F [Example 150, (2R,3S)-1-(6-((2-((3S,4R)-3-fluoro-4-methoxypiperidin-1-yl)pyrimidin-4-yl)amino)-4-isopropyl-2,7-naphthyridin-1-yl)-2-methylazetidin-3-ol]	< 15	< 10
CC(C)c1cnc(N2CCC23CN(C(C)C)C3)c2cnc(Nc3ccnc(N4CC[C@@H](O)[C@@](C)(F)C4)n3)cc12 [Example 193, (3S,4R)-3-fluoro-1-(4-((5-isopropyl-8-(6-isopropyl-1,6-diazaspiro[3.3]heptan-1-yl)-2,7-naphthyridin-3-yl)amino)pyrimidin-2-yl)-3-methylpiperidin-4-ol]	< 15	20 to 30
